# Measurements taken from article PMC3170513 (Neuropeptides, 2011).
# Starred links: 1 amine or outer side, 2 acyl side, 3 side chain; linkers in the order of their positions; H or OH if unused. Positions of bridges follow the written chain, without caps; N, C: chain ends. Non-standard residues stand in square brackets, D forms with d. Residues, ends and D or L forms follow the SMILES beside them. Chains are numbered I, II in the order given. Actinocin(9to1) = Cc1c2oc3c(C)ccc(C(=O)[*:1])c3nc-2c(C(=O)[*:2])c(N)c1=O; NMeV = CN[C@H](C(=O)O)C(C)C; Sar = CNCC(=O)O
# B1: Nerve Growth Factor 2.5S (protein, UniProt P01139 122-241, looked up)
# Beta-nerve growth factor: SSTHPVFHMGEFSVCDSVSVWVGDKTTATDIKGKEVTVLAEVNINNSVFRQYFFETKCRASNPVESGCRGIDSKHWNSYCTTTHTFVKALTTDEKQAAWRFIRIDTACVCVLSRKATRRG
# modifications: Beta-nerve growth factor
# Assays:
# [1] = system: 125I-CART 61-102 specific binding in PC12 cells; test: Effect of differentiation; format: cell-based, Rat; conditions: 5 nM radioligand; for effect of inhibitors on specific binding, undifferentiated cells: undifferentiated PC12 cells, 6 hours, CHX 10 ug/ml, ActiD 2 mM, CytoD 4 mM, n=3 – 5
# [2] = system: CART binding in nucleus accumbens neurons; conditions: primary cell cultures; ref Jones and Kuhar, 2008; cited from earlier work
# [3] = system: phospho-ERK in PC12 cells; test: ERK activation; format: cell-based, Rat; conditions: for inhibition of CART-induced phospho-ERK (general, in words): pertussis toxin
# [4] = system: voltage dependant Ca++ signaling in hippocampal cells; conditions: hippocampal cells in culture; ref Yermolaieva et al., 2001; cited from earlier work
# [5] = system: ERK signaling in AtT20 cells; conditions: ref Lakatos et al., 2005; cited from earlier work
# [6] = system: CART binding in PC12 cells; conditions: ref Maixnerova et al., 2007, Maletinska et al.; cited from earlier work
molecule,measurement,setting,value
"Cc1c2oc3c(C)ccc(C(=O)N[C@@H]4C(=O)N[C@H](C(C)C)C(=O)N5CCC[C@H]5C(=O)N(C)CC(=O)N(C)[C@@H](C(C)C)C(=O)O[C@@H]4C)c3nc-2c(C(=O)N[C@@H]2C(=O)N[C@H](C(C)C)C(=O)N3CCC[C@H]3C(=O)N(C)CC(=O)N(C)[C@@H](C(C)C)C(=O)O[C@@H]2C)c(N)c1=O [ActiD, Actinomycin D] (I: T[dV]P[Sar][NMeV] / II: T[dV]P[Sar][NMeV]; ester I:1-I:C, II:1-II:C; linker I:N-II:N via Actinocin(9to1))","effect of inhibitors on specific binding, undifferentiated cells",[1],none of the inhibitors had any effects
"C[C@@H]1C[C@@H]([C@H](O)CC2CC(=O)NC(=O)C2)C(=O)[C@@H](C)C1 [CHX, Cycloheximide]","effect of inhibitors on specific binding, undifferentiated cells",[1],none of the inhibitors had any effects
"C=C1[C@@H](C)[C@H]2[C@H](Cc3ccccc3)NC(=O)[C@]23[C@H](OC(C)=O)/C=C/[C@@](C)(O)C(=O)[C@@H](C)C/C=C/[C@H]3[C@@H]1O [CytoD, Cytochalasin D]","effect of inhibitors on specific binding, undifferentiated cells",[1],none of the inhibitors had any effects
Nc1nc2c(ncn2[C@@H]2O[C@H](COP(=O)(O)OP(=O)(O)OP(=O)(O)O)[C@@H](O)[C@H]2O)c(=O)[nH]1 [GTP],specific binding in nucleus accumbens neurons and effect of nucleotides on it,[2],reduced the binding of CART peptide
Pertussin Toxin [PTX],"inhibition of CART-induced phospho-ERK (general, in words)",[3]; PC12 cells,reduced
same,"inhibition of CART-induced phospho-ERK (general, in words)","[3]; PC12 cells, listed as pertussis toxin",blocked
same,"inhibition of CART-induced phospho-ERK, N-differentiated cells","[3]; PTX 200ng/m, at least 16 hrs, N 3 days, CART 61-102 0.3 µM",prevented
same,"inhibition of CART-induced phospho-ERK, N + P-differentiated cells","[3]; PTX 200ng/m, at least 16 hrs, N + P 3 days, CART 61-102 0.3 µM",inhibited
same,"inhibition of CART-induced phospho-ERK, undifferentiated cells","[3]; PTX 200ng/m, at least 16 hrs, undifferentiated PC12 cells, CART 0.3 µM",inhibited
same,effect of PTX alone on phospho-ERK,"[3]; PTX alone vs control, PC12 cells",no inhibitory effect compared to control
same,effect on voltage dependant Ca++ signaling,[4],blocked
same,ERK signaling in AtT20 cells,[5],reduced
B1,"phospho-ERK stimulation, positive controls","[3]; acute treatment, undifferentiated and differentiated PC12 cells, data not shown",increased ERK phosphorylation
same,change of specific 125I-CART 61-102 binding over 1-3 days of differentiation,"[1]; NGF 50ng/mL and/or PACAP 100nM, 1, 2, 3 days, N = 3 – 5",increased
same,specific binding in PC12 cells,[6],increased after differentiation
